Data: US10272088B2, “FAS inhibitors and methods associated therewith” (Wake Forest University Health Sciences, priority 2014, dated 2019)
Entries after “also recorded” stand apart in the source; their conditions may differ.

Tests used:
[1] = cited from earlier work
PC3 cells = assay: Seahorse Mito Stress test, oxygen consumption rate; conditions: Orlistat 50 μM, 12 hours
Method: PC3 cells were seeded into 24-well XF analysis microplates. The cells were the treated with vehicle (•) or Orlistat (50 μM. ? ) for 12 hours before analysis, according to Seahorse protocols. Oxygen consumption rate (OCR), a measure of mitochondrial capacity, was determined using a Seahorse Mito Stress test on a Seahorse XF24 extracellular flux analyzer.

[2] = test system: PC3 prostate, RKO colorectal, and MDA-MB-231 breast cancer cells; assay: In vitro cytotoxicity, WST-8 assay; conditions: Nano-Orl (PBA ligand) dosed equivalent to 25 m Orlistat, 24 h + 24 h
Method: Media alone or containing experimental or control agents was refreshed after 24 h and allowed to incubate for 24 additional hours. Cytotoxicity was then evaluated using the WST-8 assay (Dojindo, Rockville, Md.).

cells = assay: Cytotoxicity after pre-incubation in PBS (entrapment/hydrolytic stability); format: cell-based; conditions: pre-incubated in PBS prior to incubating with cells
FASN = FASN (Homo sapiens, UniProt P49327); assay: 14C-acetate incorporation study (FASN inhibition); conditions: PC3 cells
FASN, sequence (P49327 whole entry): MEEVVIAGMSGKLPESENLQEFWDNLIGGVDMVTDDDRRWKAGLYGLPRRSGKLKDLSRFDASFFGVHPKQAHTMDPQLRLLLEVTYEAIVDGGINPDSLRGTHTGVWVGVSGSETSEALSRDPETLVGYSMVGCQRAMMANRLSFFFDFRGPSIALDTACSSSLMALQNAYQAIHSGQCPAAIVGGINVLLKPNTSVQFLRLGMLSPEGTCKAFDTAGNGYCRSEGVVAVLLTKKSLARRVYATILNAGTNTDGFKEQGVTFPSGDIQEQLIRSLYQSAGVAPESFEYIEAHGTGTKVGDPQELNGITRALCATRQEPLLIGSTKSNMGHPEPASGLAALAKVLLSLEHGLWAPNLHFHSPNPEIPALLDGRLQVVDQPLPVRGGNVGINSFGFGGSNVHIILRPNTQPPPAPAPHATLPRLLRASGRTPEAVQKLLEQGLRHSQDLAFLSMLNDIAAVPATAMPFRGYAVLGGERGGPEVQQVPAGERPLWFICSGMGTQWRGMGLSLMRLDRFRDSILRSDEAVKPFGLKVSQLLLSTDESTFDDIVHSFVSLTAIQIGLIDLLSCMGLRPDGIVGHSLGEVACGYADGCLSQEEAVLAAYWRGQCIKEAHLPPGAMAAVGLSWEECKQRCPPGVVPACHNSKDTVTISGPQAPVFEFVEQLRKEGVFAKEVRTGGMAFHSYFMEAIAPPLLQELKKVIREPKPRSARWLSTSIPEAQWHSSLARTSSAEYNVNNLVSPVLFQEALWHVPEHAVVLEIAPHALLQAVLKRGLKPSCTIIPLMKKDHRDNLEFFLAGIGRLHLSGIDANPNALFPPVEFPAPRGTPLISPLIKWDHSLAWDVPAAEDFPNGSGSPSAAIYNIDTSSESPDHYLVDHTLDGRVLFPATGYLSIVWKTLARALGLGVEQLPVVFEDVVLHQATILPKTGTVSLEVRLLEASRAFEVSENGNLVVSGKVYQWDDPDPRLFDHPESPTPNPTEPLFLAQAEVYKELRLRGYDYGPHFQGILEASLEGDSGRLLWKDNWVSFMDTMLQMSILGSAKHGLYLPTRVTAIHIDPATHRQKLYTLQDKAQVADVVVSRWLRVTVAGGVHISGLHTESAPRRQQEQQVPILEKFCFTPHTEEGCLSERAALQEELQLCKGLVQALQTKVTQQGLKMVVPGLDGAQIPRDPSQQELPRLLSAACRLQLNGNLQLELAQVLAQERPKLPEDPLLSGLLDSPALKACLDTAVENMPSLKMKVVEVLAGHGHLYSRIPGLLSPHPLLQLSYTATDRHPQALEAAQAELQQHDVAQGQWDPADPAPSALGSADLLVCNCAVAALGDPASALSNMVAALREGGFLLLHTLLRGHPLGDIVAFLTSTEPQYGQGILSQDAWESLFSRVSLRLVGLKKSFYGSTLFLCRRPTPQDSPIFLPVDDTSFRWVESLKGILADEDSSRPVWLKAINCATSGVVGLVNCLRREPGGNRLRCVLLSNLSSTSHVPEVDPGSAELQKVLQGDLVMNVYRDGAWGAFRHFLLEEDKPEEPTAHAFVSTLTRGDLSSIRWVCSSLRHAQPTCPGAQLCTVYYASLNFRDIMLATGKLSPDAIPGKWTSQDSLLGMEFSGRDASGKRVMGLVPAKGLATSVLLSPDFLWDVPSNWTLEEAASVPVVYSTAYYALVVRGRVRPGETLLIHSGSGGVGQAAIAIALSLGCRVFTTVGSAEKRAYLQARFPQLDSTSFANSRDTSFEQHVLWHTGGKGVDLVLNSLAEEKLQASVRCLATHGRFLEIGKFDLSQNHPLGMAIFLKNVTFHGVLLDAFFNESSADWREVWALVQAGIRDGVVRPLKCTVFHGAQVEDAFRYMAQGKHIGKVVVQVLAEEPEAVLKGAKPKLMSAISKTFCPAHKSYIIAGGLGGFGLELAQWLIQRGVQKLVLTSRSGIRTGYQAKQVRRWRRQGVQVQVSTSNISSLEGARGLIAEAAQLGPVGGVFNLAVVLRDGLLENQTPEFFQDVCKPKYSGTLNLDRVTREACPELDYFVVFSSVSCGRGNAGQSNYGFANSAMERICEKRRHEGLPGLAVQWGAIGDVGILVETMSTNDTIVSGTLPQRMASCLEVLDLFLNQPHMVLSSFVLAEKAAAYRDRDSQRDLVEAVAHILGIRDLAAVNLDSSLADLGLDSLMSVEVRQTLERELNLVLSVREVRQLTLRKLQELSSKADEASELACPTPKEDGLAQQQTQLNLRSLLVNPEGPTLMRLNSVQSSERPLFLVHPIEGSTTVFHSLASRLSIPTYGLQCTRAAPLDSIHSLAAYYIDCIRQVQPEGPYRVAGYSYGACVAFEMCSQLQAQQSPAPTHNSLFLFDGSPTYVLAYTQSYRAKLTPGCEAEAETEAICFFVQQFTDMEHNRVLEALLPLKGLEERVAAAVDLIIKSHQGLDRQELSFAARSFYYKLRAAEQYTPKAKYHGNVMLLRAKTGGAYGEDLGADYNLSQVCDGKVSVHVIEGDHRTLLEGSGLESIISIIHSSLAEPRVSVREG
Method: Next, 1 μCi of ^14C-acetate will be added to the cells and be incubated for an additional 2 h. After washing cells with PBS/EDTA, the fatty acids will be extracted with chloroform/methanol (1:1) and quantified by scintillation counting using standard protocols.

[3] = Solubility/aggregation of ICG in PBS

## CCCCCCCCCCC[C@@H](C[C@@H]1OC(=O)[C@H]1CCCCCC)OC(=O)[C@H](CC(C)C)NC=O [Orlistat]
[1]; compared to a sham control
  tumor growth in vivo: inhibits tumor growth in vivo
[1]; in vivo
  bioavailability: poor bioavailability
PC3 cells
  mitochondrial capacity (oxygen consumption rate): decreases mitochondrial capacity; also recorded: negatively impacts mitochondrial capacity
[2]
  viability relative to the NP vehicle media control: consistent with free Orlistat
cells
  cytotoxicity after pre-incubation in PBS: rendered ineffective; also recorded: dramatically reduces its efficacy

## CCCCCCCCCCCCCCOc1ccc(C(=O)O)o1 [TOFA]
FASN
  14C-acetate incorporation into lipids (FASN inhibition): inhibited FASN mediated incorporation of acetate in lipids

## CC1(C)C(/C=C/C=C/C=C/C=C2\N(CCCCS(=O)(=O)O)c3ccc4ccccc4c3C2(C)C)=[N+](CCCCS(=O)(=O)[O-])c2ccc3ccccc3c21 [ICG, indocyanine green]
[3]
  solubility in PBS: not soluble in PBS; also recorded: rapidly aggregates in PBS
